Laboratory results as given in patent US9040727B2, “Histone deacetylase inhibitor of benzamides and use thereof” (Shanghai Institute of Pharmaceutical Industry, priority 2011, dated 2015).

What was measured:
HDAC1 = HDAC1 (Homo sapiens (Human), UniProt Q13547); assay: In vitro inhibitory activity towards HDAC1 (HDAC Inhibitor Drug Screening Kit); format: biochemical; conditions: for inhibition at 1 µM: compound at 1 μM; for inhibition at 10 µM: compound at 10 μM
Method: (1) The compounds to be tested were each individually prepared as 10 μM and 1 μM solutions and their inhibitory activities towards HDAC1 at these concentrations were tested.
(§1) Each dilution sample was placed in two wells and the enzyme inhibition IC50 of the compound was tested.

HDACs = assay: In vitro inhibition of HDACs (HDAC Inhibitor Drug Screening Kit); format: biochemical; conditions: for inhibitory activity on HDACs compared with MS-275 (by IC50): comparison with MS-275
Method: The test was conducted according to the instructions in the HDAC Inhibitor Drug Screening Kit (Biovision/Catalog #50051, BPS).
as §1

Chain of HDAC1 (Q13547 whole entry): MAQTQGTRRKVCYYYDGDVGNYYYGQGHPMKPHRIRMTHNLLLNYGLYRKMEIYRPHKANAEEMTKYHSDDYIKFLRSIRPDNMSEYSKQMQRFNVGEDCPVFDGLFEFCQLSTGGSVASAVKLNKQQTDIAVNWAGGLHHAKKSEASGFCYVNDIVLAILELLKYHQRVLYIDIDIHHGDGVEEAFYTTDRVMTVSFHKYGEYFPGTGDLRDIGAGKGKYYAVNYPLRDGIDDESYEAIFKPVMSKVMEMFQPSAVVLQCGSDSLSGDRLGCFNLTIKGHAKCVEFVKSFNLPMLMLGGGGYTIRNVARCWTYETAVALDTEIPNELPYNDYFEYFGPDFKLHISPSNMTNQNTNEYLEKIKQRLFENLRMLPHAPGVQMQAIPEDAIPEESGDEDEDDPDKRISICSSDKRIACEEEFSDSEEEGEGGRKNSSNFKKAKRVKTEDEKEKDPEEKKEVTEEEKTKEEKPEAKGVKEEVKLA

| Structure (SMILES) | inhibition at 1 µM (HDAC1) | inhibition at 10 µM (HDAC1) | IC50 (HDAC1) | IC50 (HDACs) | inhibitory activity on HDACs compared with MS-275 (by IC50) (HDACs) |
| --- | --- | --- | --- | --- | --- |
| Nc1ccccc1NC(=O)c1ccc(CNC(=O)c2ccc3ccccc3c2)cc1 [Compound V-1] | 4.49% | 15.2% |  |  |  |
| Nc1ccc(F)cc1NC(=O)c1ccc(CNC(=O)c2ccc3ccccc3c2)cc1 [Compound V-2] | 28.8% | 46.9% |  |  |  |
| COc1ccc2cc(C(=O)NCc3ccc(C(=O)Nc4ccccc4N)cc3)ccc2c1 [Compound V-3] | 33.3% | 60% |  |  |  |
| COc1ccc2cc(C(=O)NCc3ccc(C(=O)Nc4cc(F)ccc4N)cc3)ccc2c1 [Compound V-4] | 24.7% | 44.8% |  |  |  |
| Nc1ccc(F)cc1NC(=O)c1ccc(CNC(=O)c2cc3ccccc3[nH]2)cc1 [Compound V-7] | 41.4% | 53.3% |  |  |  |
| Nc1ccccc1NC(=O)c1ccc(CNC(=O)c2cc3ccccc3o2)cc1 [Compound V-8] | 62.2% | 79.5% |  |  |  |
| Nc1ccc(-c2cccs2)cc1NC(=O)c1ccc(CNC(=O)c2cc3ccccc3o2)cc1 [Compound V-10] | 58.9% | 75.4% |  |  |  |
| Nc1ccc(-c2ccccc2)cc1NC(=O)c1ccc(CNC(=O)c2cc3ccccc3o2)cc1 [Compound V-11] | 38.1% | 58.5% |  |  |  |
| Nc1ccccc1NC(=O)c1ccc(CNC(=O)c2nc3ccccc3[nH]2)cc1 [Compound V-12] | 8.7% | 28.4% |  |  |  |
| Nc1ccc(F)cc1NC(=O)c1ccc(CNC(=O)c2nc3ccccc3[nH]2)cc1 [Compound V-13] | 13.4% | 23.9% |  |  |  |
| Nc1ccc(F)cc1NC(=O)c1ccc(CNC(=O)c2cccc3ccccc23)cc1 [Compound V-17] | 54% | 76.2% | 0.735 µM | 0.92 µM | better inhibitory activities than MS-275 |
| Nc1ccccc1NC(=O)c1ccc(CNC(=O)c2cc3cc(F)ccc3[nH]2)cc1 [Compound V-18] | 22.1% | 49.5% |  |  |  |
| Nc1ccccc1NC(=O)c1ccc(CNC(=O)c2cc3cc(C(F)(F)F)ccc3[nH]2)cc1 [Compound V-20] | 39.4% | 72.2% |  |  |  |
| COc1c(C(=O)NCc2ccc(C(=O)Nc3ccccc3N)cc2)oc2ccccc12 [Compound V-21] | 34.4% | 68.8% | 0.758 µM | 9.4 µM |  |
| CNc1ccc2[nH]c(C(=O)NCc3ccc(C(=O)Nc4ccccc4N)cc3)cc2c1 [Compound V-22] | 36.8% | 59.5% |  |  |  |
| Nc1ccc2[nH]c(C(=O)NCc3ccc(C(=O)Nc4ccccc4N)cc3)cc2c1 [Compound V-23] | 67.1% | 78.8% | 0.998 µM | 6.89 µM |  |
| Nc1ccccc1NC(=O)c1ccc(CNC(=O)c2cc3ccccc3s2)cc1 [Compound V-24] | 59.1% | 67.4% | 1.58 µM | 1.72 µM | better inhibitory activities than MS-275 |
| Nc1cnccc1NC(=O)c1ccc(CNC(=O)c2cc3ccccc3s2)cc1 [Compound V-28] | 53.5% | 77.4% | 0.731 µM | 1.31 µM |  |
